Reference: patent publication US8507411B2, “Neoglycorandomization and digitoxin analogs” (priority 2004, dated 2013)
Read-outs that look alike come from different tables or passages of the source.

Tests used:
Du145 = test: High-throughput calcein AM cytotoxicity assay, Du145; format: cell-based, human; conditions: Du145 cells
Text: (§1) Standard errors are depicted with error bars.

MCF7 = test: High-throughput calcein AM cytotoxicity assay, MCF7; format: cell-based, human; conditions: MCF7 cells
Text: as §1

HCT-116 = test: High-throughput calcein AM cytotoxicity assay, HCT-116; format: cell-based, human; conditions: HCT-116 cells
Text: as §1

Hep3B = test: High-throughput calcein AM cytotoxicity assay, Hep3B; format: cell-based, human; conditions: Hep 3B cells
Text: as §1

NCI-H460 = test: High-throughput calcein AM cytotoxicity assay, NCI-H460; format: cell-based, human; conditions: NCI-H460 cells
Text: as §1

A549 = test: High-throughput calcein AM cytotoxicity assay, A549; format: cell-based, human; conditions: A549 cells
Text: as §1

NCI/ADR-RES = test: cells; format: cell-based, human; conditions: NCI/ADR-RES cells
Summary of the method: (§2)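 RPMI 1640 + 10% FBS (NmuMG: DMEM + 10% FBS + insulin); 10–15k cells/well, 1 h attach; 5-pt 2-fold dose series, 72 h; PBS wash, calcein AM 30 min 37 °C; ex485/em535; 4-PL fit, n ≥ 6.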

SF-268 = test: cells; format: cell-based, human; conditions: SF-268 cells
Summary of the method: as §2

SK-OV-3 = test: cells; format: cell-based, human; conditions: SK-OV-3 cells
Summary of the method: as §2

NmuMG = test: cells; format: cell-based, mouse
Summary of the method: as §2

[1] = NmuMG cells (mouse mammary normal epithelial control line), read-out: IC50
[2] = NmuMG mouse mammary normal epithelial control line, read-out: IC50, NmuMG

Molecule | IC50 (Du145; read-out: IC50, Du145) [µM] | IC50 (MCF7; read-out: IC50, MCF7) [µM] | IC50 (HCT-116; read-out: IC50, HCT-116) [µM] | IC50 (Hep3B; read-out: IC50, Hep 3B) [µM] | IC50 (NCI-H460; read-out: IC50, NCI-H460) [µM] | IC50 (A549; read-out: IC50, A549) [µM] | IC50 (NCI/ADR-RES; read-out: IC50, NCI/ADR-RES) [µM] | IC50 (SF-268; read-out: IC50, SF-268) [µM] | IC50 (SK-OV-3; read-out: IC50, SK-OV-3) [µM] | IC50 (NmuMG; [1]) [µM] | IC50 (NmuMG; [2]) [µM] | IC50 (Du145; read-out: IC50) [µM] | IC50 (MCF7; read-out: IC50) [µM] | IC50 (HCT-116; read-out: IC50) [µM] | IC50 (Hep3B; read-out: IC50) [µM] | IC50 (NCI-H460; read-out: IC50) [µM] | IC50 (A549; read-out: IC50) [µM] | IC50 (NCI/ADR-RES; read-out: IC50) [µM] | IC50 (SF-268; read-out: IC50) [µM] | IC50 (SK-OV-3; read-out: IC50) [µM]
CON(C1CCC2(C)C(CCC3C2CCC2(C)C(C4=CC(=O)OC4)CCC32O)C1)C1OC(CO)C(O)C(O)C1O [29α, D-idoside] | > 25 | > 25 | > 25 | > 25 | > 25 | > 25 | > 25 | > 25 | > 25 | > 25 | – | – | – | – | – | – | – | – | – | –
CON([C@H]1CC[C@@]2(C)[C@H](CC[C@@H]3[C@@H]2CC[C@]2(C)[C@@H](C4=CC(=O)OC4)CC[C@]32O)C1)[C@@H]1O[C@H](CO)[C@H](O)[C@@H](O)[C@@H]1O [29β, D-idoside] | 1.3 | 0.44 | 2.3 | 0.3 | 1.3 | 0.37 | 1.5 | 1.3 | 1.5 | – | > 25 | – | – | – | – | – | – | – | – | –
CON(C1CCC2(C)C(CCC3C2CCC2(C)C(C4=CC(=O)OC4)CCC32O)C1)C1CC(C)(O)C(O)C(C)O1 [30α, L-mycaroside] | > 25 | > 25 | > 25 | > 25 | > 25 | > 25 | > 25 | > 25 | > 25 | > 25 | – | – | – | – | – | – | – | – | – | –
CON([C@H]1CC[C@@]2(C)[C@H](CC[C@@H]3[C@@H]2CC[C@]2(C)[C@@H](C4=CC(=O)OC4)CC[C@]32O)C1)[C@@H]1C[C@@](C)(O)[C@@H](O)[C@H](C)O1 [30β, L-mycaroside] | 1.1 | 1.8 | 0.6 | 0.6 | 0.19 | 0.6 | 0.35 | 1.1 | 1.1 | – | > 25 | – | – | – | – | – | – | – | – | –
CON(C1CCC2(C)C(CCC3C2CCC2(C)C(C4=CC(=O)OC4)CCC32O)C1)C1OCC(O)C(O)C1O [32α, L-arabinoside] | – | – | – | – | – | – | – | – | – | > 25 | – | > 25 | > 25 | > 25 | > 25 | > 25 | > 25 | > 25 | > 25 | > 25
CON(C1CCC2(C)C(CCC3C2CCC2(C)C(C4=CC(=O)OC4)CCC32O)C1)C1OC(CO)C(O)C(O)C1NC(C)=O [34α, N-acetyl-D-galactosaminoside] | – | – | – | – | – | – | – | – | – | > 25 | – | > 25 | > 25 | > 25 | > 25 | > 25 | > 25 | > 25 | > 25 | > 25
CON(C1CCC2(C)C(CCC3C2CCC2(C)C(C4=CC(=O)OC4)CCC32O)C1)C1OC(CO)C(O)C(O)C1NC(C)=O [34β, N-acetyl-D-galactosaminoside] | > 25 | > 25 | > 25 | 17 | 20 | > 25 | 6.4 | > 25 | 17 | – | > 25 | – | – | – | – | – | – | – | – | –
CON(C1CCC2(C)C(CCC3C2CCC2(C)C(C4=CC(=O)OC4)CCC32O)C1)C1OC(COC2OC(CO)C(O)C(O)C2O)C(O)C(O)C1O (stereo not drawn) [35α, melibioside] | – | – | – | – | – | – | – | – | – | > 25 | – | > 25 | > 25 | > 25 | > 25 | > 25 | > 25 | > 25 | > 25 | > 25
CON(C1CCC2(C)C(CCC3C2CCC2(C)C(C4=CC(=O)OC4)CCC32O)C1)C1OC(CO)C(OC2OC(CO)C(O)C(O)C2O)C(O)C1O (stereo not drawn) [36α, lactoside] | – | – | – | – | – | – | – | – | – | > 25 | – | > 25 | > 25 | > 25 | > 25 | > 25 | > 25 | > 25 | > 25 | > 25
CON(C1CCC2(C)C(CCC3C2CCC2(C)C(C4=CC(=O)OC4)CCC32O)C1)C1OC(C(=O)O)C(O)C(O)C1O [38α, D-galacturonoside] | – | – | – | – | – | – | – | – | – | > 25 | – | > 25 | > 25 | > 25 | > 25 | > 25 | > 25 | > 25 | > 25 | > 25
CON(C1CCC2(C)C(CCC3C2CCC2(C)C(C4=CC(=O)OC4)CCC32O)C1)C1OC(C(=O)O)C(O)C(O)C1O [38β, D-galacturonoside] | 1.9 | 5 | 2.7 | 2.1 | 1.4 | 2.2 | 1.6 | 2.2 | 3.1 | – | > 25 | – | – | – | – | – | – | – | – | –
CON(C1CCC2(C)C(CCC3C2CCC2(C)C(C4=CC(=O)OC4)CCC32O)C1)C1OC(CO)C(O)C(O)C1O [39α, L-taloside] | – | – | – | – | – | – | – | – | – | > 25 | – | > 25 | > 25 | > 25 | > 25 | > 25 | > 25 | > 25 | > 25 | > 25
CON(C1CCC2(C)C(CCC3C2CCC2(C)C(C4=CC(=O)OC4)CCC32O)C1)C1OC(CO)C(O)C(O)C1O [39β, L-taloside] | 0.76 | 1.8 | 2.3 | 0.96 | 1.1 | 0.89 | 1 | 1.4 | 1.5 | – | 0.5 | – | – | – | – | – | – | – | – | –
CON(C1CCC2(C)C(CCC3C2CCC2(C)C(C4=CC(=O)OC4)CCC32O)C1)C1OC(CO)C(O)C(O)C1O [40α, D-taloside] | – | – | – | – | – | – | – | – | – | > 25 | – | > 25 | > 25 | > 25 | > 25 | > 25 | > 25 | > 25 | > 25 | > 25
CON(C1CCC2(C)C(CCC3C2CCC2(C)C(C4=CC(=O)OC4)CCC32O)C1)C1OC(CO)C(O)C(O)C1O [42α, L-glucoside] | – | – | – | – | – | – | – | – | – | > 25 | – | > 25 | > 25 | > 25 | > 25 | > 25 | > 25 | > 25 | > 25 | > 25
CON(C1CCC2(C)C(CCC3C2CCC2(C)C(C4=CC(=O)OC4)CCC32O)C1)C1OC(CO)C(O)C(O)C1O [42β, L-glucoside] | 1.3 | 0.6 | 0.9 | 0.9 | 1.3 | 0.8 | 0.55 | 1.9 | 1 | – | 1.2 | – | – | – | – | – | – | – | – | –
C[C@]12CC[C@H](O[C@@H]3O[C@H](CO)[C@@H](O)[C@H](O)[C@H]3O)C[C@H]1CC[C@@H]1[C@@H]2CC[C@]2(C)[C@@H](C3=CC(=O)OC3)CC[C@]12O [43β, O-D-glucoside] | 0.22 | 0.7 | 0.6 | 0.21 | 0.39 | 0.29 | 0.19 | 0.22 | 0.4 | – | > 25 | – | – | – | – | – | – | – | – | –
D-arabinoside [33α] | – | – | – | – | – | – | – | – | – | > 25 | – | > 25 | > 25 | > 25 | > 25 | > 25 | > 25 | > 25 | > 25 | > 25
L-rhamnoside [16α] | > 25 | > 25 | > 25 | > 25 | > 25 | > 25 | > 25 | > 25 | > 25 | – | > 25 | – | – | – | – | – | – | – | – | –
L-rhamnoside [16β] | 0.17 | 1.8 | 0.9 | 0.54 | 0.33 | 0.7 | 0.35 | 3.3 | 4 | – | > 25 | – | – | – | – | – | – | – | – | –
